# Reference: patent publication US8759300B2, “Polypeptides and methods of use” (The Research Foundation for the State University of New York, priority 2007, dated 2014)
# “Also recorded” adds a separate entry of the source. No end group written: not given here.
# Assays:
# PDGF-BB [1] = biological target: T1, PDGF-BB (Homo sapiens, UniProt P01127); assay: Equilibrium binding of 125I-PDGF-BB to FN, FN domains and peptides; settings: for PDGF-BB binding, in words: equilibrium binding and/or plasmon resonance; for Kd: equilibrium binding
# Protocol: (§1) 20 μl of 50% v/v peptide-agarose beads are incubated with 125I-PDGF in 0.1 ml of binding buffer (DMEM+2% BSA) at room temperature for 2 hours with rotation. Beads are washed 6 times with DMEM. Bound PDGF-BB are released by the addition of 100 μl of 1M NaOH. The radioactivity bound to FN-beads are quantified in a γ-counter. Nonspecific binding are established from ^125I-PDGF binding to nonconjugated beads, then specific binding derived by subtraction of nonspecific binding from total binding. Binding constants (KD) and Bmax are determined from nonlinear regression of specific binding curves using Prism 4 from GraphPad Software, San Diego, Calif. “Scatchard plots” are derived from the KD and Bmax obtained with non linear regression analysis.
# [2] = system: GFs (TGF-β1, PDGF-BB, VEGF, FGF-2); assay: Binding of growth factors to FN domains, GFs reported together
# Protocol: as §1
# (§2) In the Biacore2000 system, binding constants from kinetic data are determined by passing varying concentrations of FN peptides (analytes) over chip surfaces which are coupled with PDGF-BB (ligand), respectively. All kinetic experiments are carried out at 20° C. at a flow rate of 20 μl/min. For mass transport experiments, each analyte is injected at a fixed concentration and run at flow rates ranging from 5 to 75 μl/min. All analytes are injected over PDGF-BB ligand surfaces as well as over a control surface for 120 s, followed by 300 s of dissociation in running buffer. Regeneration of the sensor chip for subsequent injections is accomplished by pulse of 0.1% SDS. Mass transport experiments have detected little difference in response at different flow rates thus validating data from kinetic experiments. Sensorgrams are prepared and globally fitted using nonlinear least-squares analysis and numerical integration of the differential rate equations with the Biacore Bioevaluation software. Each sensogram generated using a control surface is substracted from the corresponding experimental sensorgrams, and the resulting curves are transformed to concentration units using the molecular mass of the injected species, the equivalence of 1000 resonance units (RU) per 1 ng/mm^2, and a matrix thickness of 100 nm. Each data set, which consists of a series of sensorgrams from injections of different concentration of analyte over the same surface, are analyzed using kinetic models from Biaevaluation software.
# PDGF-BB [3] = biological target: T1, PDGF-BB; assay: Surface plasmon resonance (Biacore), PDGF-BB; format: binding; settings: plasmon resonance, kinetic binding
# Protocol: as §2, with “Each sensogram generated using a control surface is substracted from the corresponding experimental sensorgrams, and the resulting curves are transformed to concentration units using the molecular mass of the injected species, the equivalence of 1000 resonance units (RU) per 1 ng/mm^2, and a matrix thickness of 100 nm.” left out
# FN-null cells [4] = assay: FN-null cell survival on surfaces coated with FN domains; format: cell-based, mouse; settings: for FN-null cell survival / proliferation: FNIII8-11 ± named FN domain, or named FN construct, PDGF-BB added 2 hrs after plating; for FN-null cell survival / proliferation, summary statement: cells plated on named FN construct, or on FNIII8-11 ± named domain; for FN-null cell survival with PDGF at 3 days: surface precoated with 0.15 μM GST-tagged FNIII8-11 ± named FN domain, or named FN construct, PDGF-BB added 1 day after plating
# Protocol: To further investigate the response of cells to PDGF-BB bound to FN domains, we investigated the survival response of mouse fibroblasts null for FN (FN−/−), or “FN-null”. First we determined the response of FN-null cells to PDGF-BB in the absence of serum or other sources of exogenous FN. […] Next, FN-null cells were plated on tissue culture plastic surfaces precoated with 0.15 μM GST-tagged FNIII8-11±other FN domains known to have PDGF-BB binding activity and then PDGF-BB added 1 day later. […] Importantly, differential response of FN-null cells, plated on different FN domains, to PDGF-BB was not secondary to differences in attachment as judged by cell counts two hours after plating. The FNIII8-11 central cell binding domain was present in all circumstances.
# VEGF = biological target: T2, VEGF (Homo sapiens, UniProt P15692); assay: Surface plasmon resonance, VEGF; format: binding
# T2 sequence (P15692 27-191 isoform P15692-4): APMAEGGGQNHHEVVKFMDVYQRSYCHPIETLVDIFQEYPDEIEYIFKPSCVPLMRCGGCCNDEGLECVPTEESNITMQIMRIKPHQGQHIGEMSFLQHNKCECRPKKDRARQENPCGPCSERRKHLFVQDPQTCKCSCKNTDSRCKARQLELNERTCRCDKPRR
# bFGF (FGF-2) = bFGF (FGF-2) (Homo sapiens, UniProt P09038); assay: Equilibrium binding of bFGF (FGF-2) to FN and FN domains
# Protocol: [The source words this procedure for another target and reports this target under the same test.] as §1
# TGF-β1 = TGF-β1 (Homo sapiens, UniProt P01137); assay: Equilibrium binding of TGF-β1 to FN, FN domains and peptides; settings: for TGF-β1 binding, in words: equilibrium and/or kinetic binding
# Protocol: [The source words this procedure for another target and reports this target under the same test.] as §1
# FN-null cells [5] = assay: FN-null cell assay, peptides added directly to medium on FNIII8-11; format: cell-based, mouse
# Protocol: FIG. 6. FN-null fibroblast response to soluble, unconjugated P5 (SEQ ID NO:37). FN-null cells were cultured at 4,000 cells/well in 96 well plates precoated with 0.125 mM of FNIII8-11 in DMEM for 4 hrs, and then further incubated in DMEM+2% BSA with or without the indicated concentrations of Peptide 5 at 37° C. for 3 days. Cells were counted in three 10× fields in each of 4 wells (mean±SD, n−12).
# Scrambled variants of peptides 1 and 5 had no activity in these assays.
# Variants of peptide 5 derived from fibronectin were generated by removing one amino acid at a time from the N-terminus or C-terminus of Peptide 5 (Table 2). These peptides (P12-P24) were added directly to medium with or without PDGF-BB.
# [6] = biological target: T3, PDGF-BB binding to FNIII1, FNIII12-14 and IIICS (Homo sapiens, UniProt P01127); assay: Inhibition by peptides of PDGF-BB binding to FN domains; settings: all three FN domains
# T3 construct: made in house; host or cells: E. coli BL21DE3LysS (FN domains only)
# From the text: To further localize PDGF-BB binding within FNIIII, we acquired a peptide from the central 76 amino acids (aa) of FNIII1 (FN630-704) (FIG. 4), which has anti-angiogenic properties and promotes FN polymerization. […] Next, we looked for sequence homologies within the two halves of the peptide and discovered the sequence pattern noted above ([QN]-X(1,2)-[ST]-X(0,1)-[IG]-[QS]-[KRQ]-[YTM]-[IG]-X(4,5)-X(0,1)-[KR]-X(1,2)-X(1,2)-[RT]-X(1,2)-[KQTS]-X(2)-T) (SEQ ID NO:30) (see peptides 1-4). […] These findings may explain similar PDGF-BB binding among FN heparin-binding domains, FNIII12-V15, FNIII12-15, FNIII12-14, FNIII12-13, and IIICS. […] Next, we determined if PDGF-BB-binding peptides from FNIII1 could inhibit PDGF-BB binding to FNIII1, FNIII12-14 and IIICS. For initial experiments we selected peptide 1 and peptide 2. For control, we used scrambled peptide 1.
# [7] = biological target: T4, bFGF binding to recombinant FN domain (Homo sapiens, UniProt P09038); assay: Inhibition by peptide of bFGF binding to recombinant FN domains
# T4 construct: made in house; host or cells: E. coli BL21DE3LysS (FN domains only)
# [8] = biological target: T5, TGF-β1 binding to recombinant FN domain (Homo sapiens, UniProt P01137); assay: Inhibition by peptide of TGF-β1 binding to recombinant FN domains
# T5 construct: made in house; host or cells: E. coli BL21DE3LysS (FN domains only)
# FGF-1 = FGF-1 (Homo sapiens, UniProt P05230); assay: Binding of FGF-1 to FN, FN domains and peptides
# TGF-α = TGF-α (Homo sapiens, UniProt P01135); assay: Binding of TGF-α to FN, FN domains and peptides
# EGF = EGF (Homo sapiens, UniProt P01133); assay: Binding of EGF to FN, FN domains and peptides
# [9] = peptide added directly to media with or without PDGF-BB
# T1 sequence (P01127 82-190 limits assumed): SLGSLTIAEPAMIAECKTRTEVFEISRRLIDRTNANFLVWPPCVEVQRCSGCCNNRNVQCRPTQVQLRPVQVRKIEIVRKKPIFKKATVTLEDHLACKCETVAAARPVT
# Sequence of TGF-β1 (P01137 279-390 limits assumed): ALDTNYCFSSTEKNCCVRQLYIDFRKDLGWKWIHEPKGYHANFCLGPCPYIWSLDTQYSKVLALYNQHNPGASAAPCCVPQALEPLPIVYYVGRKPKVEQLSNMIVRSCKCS
# T3 sequence (P01127 82-190 limits assumed): as the sequence (P01127 82-190 limits assumed) above
# Sequence of bFGF (FGF-2) (P09038 143-288): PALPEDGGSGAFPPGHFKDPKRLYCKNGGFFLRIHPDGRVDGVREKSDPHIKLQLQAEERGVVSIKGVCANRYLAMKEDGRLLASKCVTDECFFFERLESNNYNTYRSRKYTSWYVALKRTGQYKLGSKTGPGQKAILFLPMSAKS
# Sequence of FGF-1 (P05230 whole entry, species assumed, the tested form may be a part): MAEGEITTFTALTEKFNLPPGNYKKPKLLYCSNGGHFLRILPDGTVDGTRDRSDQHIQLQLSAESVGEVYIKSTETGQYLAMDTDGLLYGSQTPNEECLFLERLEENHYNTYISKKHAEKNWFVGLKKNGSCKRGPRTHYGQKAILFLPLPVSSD
# Sequence of EGF (P01133 971-1023 limits assumed, species assumed): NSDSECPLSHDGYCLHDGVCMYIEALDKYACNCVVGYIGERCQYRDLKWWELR
# Sequence of TGF-α (P01135 40-89, species assumed): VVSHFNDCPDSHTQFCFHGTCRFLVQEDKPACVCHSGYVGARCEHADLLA
# T4 sequence (P09038 134-288 limits assumed): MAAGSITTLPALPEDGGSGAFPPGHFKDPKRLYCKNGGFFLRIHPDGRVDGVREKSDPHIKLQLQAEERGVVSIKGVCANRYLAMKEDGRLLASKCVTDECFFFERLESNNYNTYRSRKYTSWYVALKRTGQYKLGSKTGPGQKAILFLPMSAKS
# T5 sequence (P01137 279-390 limits assumed): as the sequence (P01137 279-390 limits assumed) above
substance,measurement,setting,value
"FN70: 70 kDa amino terminus of FN, which includes fibrin and gelatin binding domains","PDGF-BB binding, in words",PDGF-BB [1],did not
same,"Binding of the GFs tested, in words",[2],None of the GFs detectably bound; also recorded: In no case did any GF bind
FN630-667: half of the 76 aa FNIII1 peptide FN630-704,"PDGF-BB binding, in words",PDGF-BB [1],demonstrated PDGF-BB binding
FN668-704: half of the 76 aa FNIII1 peptide FN630-704,"PDGF-BB binding, in words",PDGF-BB [1],demonstrated PDGF-BB binding
"FNIII1-2: recombinant FN domain, first and second type III repeat",Kd,PDGF-BB [1],0.037 µM
same,Kd,PDGF-BB [3],0.0091 µM
same,FN-null cell survival / proliferation,FN-null cells [4],enhance survival
same,"Binding of the GFs tested, in words",[2],all four GFs bound
FNIII1-11: recombinant FN domain; FNIII1 PDGF-binding domain contiguous with FNIII8-11 cell-binding domain,"PDGF-BB binding, in words",PDGF-BB [1],bound
same,"VEGF binding, in words",VEGF,did not
same,"bFGF (FGF-2) binding, in words",bFGF (FGF-2); equilibrium and/or kinetic binding,did not
same,FN-null cell survival in the absence of PDGF-BB,FN-null cells [4],survived
same,FN-null cell survival / proliferation,FN-null cells [4],robust proliferation
same,"FN-null cell survival / proliferation, summary statement",FN-null cells [4],survived in the absence of PDGF-BB and proliferated in its presence
same,FN-null cell survival with PDGF at 3 days,FN-null cells [4],best survival response
same,"TGF-β1 binding, in words",TGF-β1,bound
"FNIII1: recombinant FN domain, first type III repeat",Kd,PDGF-BB [1],0.032 µM
same,Kd,PDGF-BB [3],0.37 µM
same,FN-null cell survival with PDGF at 3 days,FN-null cells [4],increased survival
same,"Binding of the GFs tested, in words",[2],all four GFs bound
same,Kd,TGF-β1; method not restated (equilibrium and kinetic binding performed),0.0062 µM
"FNIII2: recombinant FN domain, second type III repeat","Binding of the GFs tested, in words",[2],all four GFs bound
FNIII8-11: classic cell-binding domain of FN containing RGD,"PDGF-BB binding, in words",PDGF-BB [1],did not
same,"FN-null cell survival / proliferation, summary statement",FN-null cells [4],failed to survive even in the presence of PDGF-BB; also recorded: did not support cell survival
same,FN-null cell survival with PDGF at 3 days,FN-null cells [4],failed to survive
same,"Binding of the GFs tested, in words",[2],None of the GFs detectably bound; also recorded: In no case did any GF bind
FNIII8-V15: FN functional domain containing FNIII8-11 plus a GF-binding domain,FN-null cell survival / proliferation,FN-null cells [4],robust proliferation
same,"FN-null cell survival / proliferation, summary statement",FN-null cells [4],survived in the absence of PDGF-BB and proliferated in its presence
PSHISKYILRWRPK [P12],FN null cell survival and proliferation,FN-null cells [5]; [9],smallest peptide capable of supporting FN-null cell survival or proliferation
PSLAKKQRFRHRNR,FN null cell survival and proliferation,FN-null cells [5]; in the presence of PDGF-BB,supported FN null cell survival and proliferation
QLISIQQYGHQEVTRFDFTTTSTST [peptide 2],"Inhibition of PDGF-BB binding to FNIII1, FNIII12-14 and IIICS",[6],"neither peptide 2, nor the scramble variant of peptide 1 (FN634-658s), demonstrated inhibition"
QPSHISKY,"TGF-β1 binding, in words",TGF-β1,minimal binding activity
QPSHISKYILRWRPKNSVGRWKEAT [peptide 1],Inhibition of bFGF binding to any recombinant FN domain,[7],completely inhibited
same,Inhibition of TGF-β1 binding to any recombinant FN domain,[8],completely inhibited
same,FN null cell survival and proliferation,FN-null cells [5]; [9],supported FN null cell survival and proliferation
same,"Inhibition of PDGF-BB binding to FNIII1, FNIII12-14 and IIICS",[6],marked inhibition
QPSVGQQMIFEEHGFRRTTPPTTAT [peptide 4],Kd,TGF-β1; equilibrium binding,0.1 µM
"anastellin: 76-aa peptide within FNIII1; anti-angiogenic, promotes FN polymerization [reference compound]","PDGF-BB binding, in words",PDGF-BB [1],demonstrated PDGF-BB binding
same,"Binding of the GFs tested, in words",[2],all but VEGF bound
intact FN: intact human plasma fibronectin (SEQ ID NO:1),"FGF-1 binding, in words",FGF-1,did not
same,Kd,PDGF-BB [1],0.049 µM
same,"TGF-α binding, in words",TGF-α,did not
same,Kd,"bFGF (FGF-2); equilibrium binding, intact FN, read-out: KD, FGF-2 (bFGF) binding",0.044 µM
same,"EGF binding, in words",EGF,did not
same,FN-null cell survival / proliferation,FN-null cells [4],robust proliferation
same,"FN-null cell survival / proliferation, summary statement",FN-null cells [4],survived in the absence of PDGF-BB and proliferated in its presence
same,Kd,TGF-β1; equilibrium binding,0.053 µM
